Reference: patent publication US9428504B2, “7-hydroxy-spiropipiperidine indolinyl antagonists of P2Y1 receptor” (BRISTOL-MYERS SQUIBB COMPANY, priority 2012, dated 2016)

system: human platelet rich plasma (PRP); test: ADP induced platelet aggregation assay; conditions: Homo sapiens, Platelet, read-out: PA IC50 (μM) @ 10 μM ADP, platelet aggregation induced by 10 μM ADP, human PRP
Method: The ability of P2Y1 antagonists covered in the present invention to inhibit platelet aggregation induced by 10 μM ADP was tested using human platelet rich plasma (PRP) as described in Platelet Protocols: Research and Clinical Laboratory Procedures (White, M. M. et al., Academic Press (1999)). Human blood was collected in 30 μM (final concentration in blood) argatroban (GSK) as the anticoagulant at a ratio of 1 ml per 9 ml of blood. The PRP was isolated by centrifugation at 170 g for 12 minutes. The platelet poor plasma (PPP) was used as the blank for optical aggregometry. Compounds of the present invention in DMSO solution was preincubated with 250 μl PRP at 37° C. for 1 minute with stirring speed of 1000 rpm. Aggregation was initiated by addition of 2.5 μl of 1 mM ADP (Chrono-log, Havertown, Pa.) for a final ADP concentration of 10 μM. Platelet aggregation was monitored using Optical Aggregometer (Chrono-log, Havertown, Pa.) and the area under the curve (AUC) at 5 minute was measured. IC50 was calculated using vehicle control as 0% inhibition.

`CC(C)(C)CN1CCC2(CC1)CN(c1ccccc1NC(=O)Nc1ccc(C(C)(C)C)cc1)c1c2ccc(F)c1O` [Example 2, 1-(4-tert-Butylphenyl)-3-(2-(6-fluoro-7-hydroxy-1′-neopentylspiro[indoline-3,4′-piperidine]-1-yl)phenyl)urea] and `CC(C)(C)CN1CCC2(CC1)CN(c1ccccc1NC(=O)Nc1ccc(OC(F)(F)F)cc1)c1c(O)cc(F)cc12` [Example 76, 1-(2-(5-Fluoro-7-hydroxy-1′-neopentylspiro[indoline-3,4′-piperidine]-1-yl)phenyl)-3-(4-(trifluoromethoxy)phenyl)urea] are within 1.5-fold of each other in IC50: 0.6 µM for the first, 0.7 µM for the second.

Going from `CC(C)(C)CN1CCC2(CC1)CN(c1ccccc1NC(=O)Nc1nc3ccc(F)cc3s1)c1c(O)ccc(C(F)(F)F)c12` [Example 3, 1-(6-Fluorobenzo[d]thiazol-2-yl)-3-(2-(7-hydroxy-1′-neopentyl-4-(trifluoromethyl)spiro[indoline-3,4′-piperidine]-1-yl)phenyl)urea] to `CC(C)(C)CN1CCC2(CC1)CN(c1ccc(F)cc1NC(=O)Nc1nc3ccc(F)cc3s1)c1c(O)ccc(Cl)c12` [Example 68, 1-(2-(4-Chloro-7-hydroxy-1′-neopentylspiro[indoline-3,4′-piperidine]-1-yl)-5-fluorophenyl)-3-(6-fluorobenzo[d]thiazol-2-yl)urea], the IC50 rises from 0.1 µM to 0.7 µM (7-fold). The first is the more potent here.

`CC(C)CN1CCC2(CC1)CN(c1ccccc1NC(=O)Nc1nc3ccc(F)cc3s1)c1c(O)ccc(Cl)c12` [Example 4, 1-(2-(4-Chloro-7-hydroxy-1′-isobutylspiro[indoline-3,4′-piperidine]-1-yl)phenyl)-3-(6-fluorobenzo[d]thiazol-2-yl)urea] and `CC(C)CN1CCC2(CC1)CN(c1ccccc1NC(=O)Nc1nc3ccc(Cl)nc3s1)c1c(O)ccc(C(F)(F)F)c12` [Example 171, 1-(5-Chlorothiazolo[5,4-b]pyridin-2-yl)-3-(2-(7-hydroxy-1′-isobutyl-4-(trifluoromethyl)spiro[indoline-3,4′-piperidine]-1-yl)phenyl)urea] are within 1.5-fold of each other in IC50: 0.4 µM for the first, 0.3 µM for the second.

`COc1ccc2nc(NC(=O)Nc3ccccc3N3CC4(CCN(CC(C)(C)C)CC4)c4c(C#N)ccc(O)c43)sc2c1` [Example 86, l-(2-(4-Cyano-7-hydroxy-1′-neopentylspiro[indoline-3,4′-piperidin]-1-yl)phenyl)-3-(6-methoxybenzo[d]thiazol-2-yl)urea] and `COc1ccc2nc(NC(=O)Nc3ccccc3N3CC4(CCN(CC(C)(C)C)CC4)c4c(C#N)ccc(O)c43)sc2n1` [Example 177, 1-(2-(4-Cyano-7-hydroxy-1′-neopentylspiro[indoline-3,4′-piperidine]-1-yl)phenyl)-3-(5-methoxythiazolo[5,4-b]pyridin-2-yl)urea] are within 1.5-fold of each other in IC50: 0.8 µM for the first, 0.7 µM for the second.

`CC(C)c1nsc(NC(=O)Nc2ccccc2N2CC3(CCN(CC(C)(C)C)CC3)c3c(C#N)ccc(O)c32)n1` [Example 88, l-(2-(4-Cyano-7-hydroxy-1′-neopentylspiro[indoline-3,4′-piperidin]-1-yl)phenyl)-3-(3-isopropyl-1,2,4-thiadiazol-5-yl)urea] and `CC(C)(C)CN1CCC2(CC1)CN(c1ccccc1NC(=O)Nc1nc3ccc(F)nc3s1)c1c(O)ccc(C#N)c12` [Example 180, 1-(2-(4-Cyano-7-hydroxy-1′-neopentylspiro[indoline-3,4′-piperidine]-1-yl)phenyl)-3-(5-fluorothiazolo[5,4-b]pyridin-2-yl)urea] are the same in IC50: 0.9 µM for the first, 0.9 µM for the second.

Compared with `CC(C)(C)CN1CCC2(CC1)CN(c1ccccc1NC(=O)Nc1nc3ccc(Cl)cc3s1)c1c(O)cc(F)c(Cl)c12` [Example 94, 1-(2-(4-Chloro-5-fluoro-7-hydroxy-1′-neopentylspiro [indoline-3,4′-piperidine]-1-yl)phenyl)-3-(6-chlorobenzo[d]thiazol-2-yl)urea], `CC(C)(C)CN1CCC2(CC1)CN(c1ccccc1NC(=O)Nc1csc(Cl)n1)c1c(O)cc(F)c(Cl)c12` [Example 103, 1-(2-(4-Chloro-5-fluoro-7-hydroxy-1′-neopentylspiro [indoline-3,4′-piperidin]-1-yl)phenyl)-3-(2-chlorothiazol-4-yl)urea] is 2.3-fold lower in IC50: 0.7 µM for the first, 0.3 µM for the second.

`CC(C)(C)CN1CCC2(CC1)CN(c1ccccc1NC(=O)Nc1nc3ccc(Cl)nc3s1)c1c(O)ccc(-c3nc4cc(C(F)(F)F)ccc4s3)c12` [Example 109, 1-(5-Chlorothiazolo[5,4-b]pyridin-2-yl)-3-(2-(7-hydroxy-1′-neopentyl-4-(5-(trifluoromethyl)benzo[d]thiazol-2-yl)spiro[indoline-3,4′-piperidin]-1-yl)phenyl)urea] and `CC(C)(C)CN1CCC2(CC1)CN(c1ccccc1NC(=O)Nc1nc3ccc(Cl)nc3s1)c1c(O)ccc(-c3nc4cc(Cl)ccc4s3)c12` [Example 110, 1-(2-(4-(5-Chlorobenzo[d]thiazol-2-yl)-7-hydroxy-1′-neopentylspiro[indoline-3,4′-piperidin]-1-yl)phenyl)-3-(5-chlorothiazolo[5,4-b]pyridin-2-yl)urea] are within 1.5-fold of each other in IC50: 0.4 µM for the first, 0.5 µM for the second.

Compared with `CC(C)(C)CN1CCC2(CC1)CN(c1ccccc1NC(=O)Nc1csc(Cl)n1)c1c(O)ccc(-c3nc4cc(Cl)ccc4s3)c12` [Example 111, 1-(2-(4-(5-Chlorobenzo[d]thiazol-2-yl)-7-hydroxy-1′-neopentylspiro[indoline-3,4′-piperidine]-1-yl)phenyl)-3-(2-chlorothiazol-4-yl)urea], `CC(C)(C)CN1CCC2(CC1)CN(c1ccccc1NC(=O)Nc1csc(Cl)n1)c1c(O)ccc(-c3nc4cccc(Cl)c4s3)c12` [Example 122, 1-(2-(4-(7-Chlorobenzo[d]thiazol-2-yl)-7-hydroxy-1′-neopentylspiro[indoline-3,4′-piperidin]-1-yl)phenyl)-3-(2-chlorothiazol-4-yl)urea] is 2-fold higher in IC50: 0.2 µM for the first, 0.4 µM for the second. The first is the more potent here.

Going from `CC(C)(C)CN1CCC2(CC1)CN(c1ccccc1NC(=O)Nc1nc3ccc(Cl)cc3s1)c1c(O)ccc(-c3nc4cc(F)ccc4s3)c12` [Example 127, 1-(6-Chlorobenzo[d]thiazol-2-yl)-3-(2-(4-(5-fluorobenzo[d]thiazol-2-yl)-7-hydroxy-1′-neopentylspiro[indoline-3,4′-piperidin]-1-yl)phenyl)urea] to `CC(C)(C)CN1CCC2(CC1)CN(c1ccccc1NC(=O)Nc1nc3ccc(F)cc3s1)c1c(O)ccc(-c3nc4cc(Cl)ccc4s3)c12` [Example 133, 1-(2-(4-(5-Chlorobenzo[d]thiazol-2-yl)-7-hydroxy-1′-neopentylspiro[indoline-3,4′-piperidin]-1-yl)phenyl)-3-(6-fluorobenzo[d]thiazol-2-yl)urea], the IC50 falls from 0.5 µM to 0.3 µM (1.7-fold).

`CC(C)(C)CN1CCC2(CC1)CN(c1ccccc1NC(=O)Nc1ccc(OC(F)(F)F)cc1)c1c(O)ccc(-c3nc4cc(Cl)ccc4s3)c12` [Example 134, 1-(2-(4-(5-Chlorobenzo[d]thiazol-2-yl)-7-hydroxy-1′-neopentylspiro[indoline-3,4′-piperidin]-1-yl)phenyl)-3-(4-(trifluoromethoxy)phenyl)urea] and `CC(C)(C)CN1CCC2(CC1)CN(c1ccccc1NC(=O)Nc1ccc(OC(F)(F)F)cc1)c1c(O)ccc(-c3nc4ccc(Cl)cc4s3)c12` [Example 136, 1-(2-(4-(6-Chlorobenzo[d]thiazol-2-yl)-7-hydroxy-1′-neopentylspiro[indoline-3,4′-piperidin]-1-yl)phenyl)-3-(4-(trifluoromethoxy)phenyl)urea] are within 1.5-fold of each other in IC50: 0.4 µM for the first, 0.5 µM for the second.

`CC(C)(C)CN1CCC2(CC1)CN(c1ccccc1NC(=O)Nc1nc3ccc(F)cc3s1)c1c(O)ccc(-c3nc4ccc(Cl)cc4s3)c12` [Example 139, 1-(2-(4-(6-Chlorobenzo[d]thiazol-2-yl)-7-hydroxy-1′-neopentylspiro[indoline-3,4′-piperidin]-1-yl)phenyl)-3-(6-fluorobenzo[d]thiazol-2-yl)urea] and `CC(C)(C)CN1CCC2(CC1)CN(c1ccccc1NC(=O)Nc1nc3ccc(F)cc3s1)c1c(O)ccc(-c3nc4ccc(F)cc4s3)c12` [Example 148, 1-(6-Fluorobenzo[d]thiazol-2-yl)-3-(2-(4-(6-fluorobenzo[d]thiazol-2-yl)-7-hydroxy-1′-neopentylspiro[indoline-3,4′-piperidin]-1-yl)phenyl)urea] are within 1.5-fold of each other in IC50: 0.4 µM for the first, 0.3 µM for the second.

Compared with `CC(C)CN1CCC2(CC1)CN(c1ccccc1NC(=O)Nc1ccc(OC(F)(F)F)cc1)c1c(O)ccc(-c3nc4cc(Cl)ccc4s3)c12` [Example 142, 1-(2-(4-(5-Chlorobenzo[d]thiazol-2-yl)-7-hydroxy-1′-isobutylspiro[indoline-3,4′-piperidine]-1-yl)phenyl)-3-(4-(trifluoromethoxy)phenyl)urea], `CC(C)N1CCC2(CC1)CN(c1ccccc1NC(=O)Nc1ccc(OC(F)(F)F)cc1)c1c(O)ccc(-c3nc4cc(Cl)ccc4s3)c12` [Example 143, 1-(2-(4-(5-Chlorobenzo[d]thiazol-2-yl)-7-hydroxy-1′-isopropylspiro[indoline-3,4′-piperidine]-1-yl)phenyl)-3-(4(trifluoromethoxy)phenyl)urea] is 1.8-fold higher in IC50: 0.5 µM for the first, 0.9 µM for the second. The first is the more potent here.

`CC(C)(C)CN1CCC2(CC1)CN(c1ccccc1NC(=O)Nc1csc(Cl)n1)c1c(O)cc(F)c(-c3ccc(Cl)cc3)c12` [Example 163, 1-(2-(4-(4-Chlorophenyl)-5-fluoro-7-hydroxy-1′-neopentylspiro[indoline-3,4′-piperidin]-1-yl)phenyl)-3-(2-chlorothiazol-4-yl)urea] was tested, and the IC50 was 0.1 µM.

same assay, conditions: read-out: PA IC50 (μM) @ 10 μM ADP; platelet aggregation induced by 10 μM ADP, human PRP

For `CC(C)(C)CN1CCC2(CC1)CN(c1ccccc1NC(=O)Nc1ccc(OC(F)(F)F)cc1)c1c(O)cc(F)c(-c3nc4ccc(F)cc4s3)c12` [Example 151, 1-(2-(5-Fluoro-4-(6-fluorobenzo[d]thiazol-2-yl)-7-hydroxy-1′-neopentylspiro[indoline-3,4′-piperidin]-1-yl)phenyl)-3-(4-(trifluoromethoxy)phenyl)urea], the IC50 was 0.3 µM.

molecular target: cloned human P2Y1 receptors (Homo sapiens (Human), UniProt P47900); test: Binding Assay B: Scintillation Proximity Assay (SPA) for P2Y1 binding; conditions: SPA, [33P] 2MeS-ADP displacement; read-out: P2Y1 Ki (nM) using binding assay B
Method: A SPA membrane binding assay was used to identify inhibitors of [^33P] […] Binding reactions were performed in 384-well OptiPlates (PerkinElmer Life Sciences, Cat #6007299) in a volume of 50 μL containing ˜15 fmol of P2Y1 receptor (1.7 μg of total protein), 0.3 nM [^33P] […] Reactions were allowed to proceed to completion at room temperature for 1 hour followed by centrifugation of the plate for 5 min. About 40 μL of the aqueous solution was aspirated. Plates were sealed and the [^33P]

Chain of cloned human P2Y1 receptors (P47900 whole entry): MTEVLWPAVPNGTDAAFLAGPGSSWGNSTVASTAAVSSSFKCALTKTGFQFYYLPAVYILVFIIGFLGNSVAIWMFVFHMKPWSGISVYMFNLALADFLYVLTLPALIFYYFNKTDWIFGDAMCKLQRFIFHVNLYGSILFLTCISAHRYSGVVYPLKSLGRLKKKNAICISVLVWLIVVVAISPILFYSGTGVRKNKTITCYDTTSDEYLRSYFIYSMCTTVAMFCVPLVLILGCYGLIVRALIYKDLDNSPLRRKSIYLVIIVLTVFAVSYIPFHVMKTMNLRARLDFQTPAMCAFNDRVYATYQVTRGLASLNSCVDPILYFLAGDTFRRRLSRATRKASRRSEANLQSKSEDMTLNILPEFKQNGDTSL

`CC(C)(C)CN1CCC2(CC1)CN(c1ccccc1NC(=O)Nc1ccc(C(C)(C)C)cc1)c1c2ccc(F)c1O` [Example 2, 1-(4-tert-Butylphenyl)-3-(2-(6-fluoro-7-hydroxy-1′-neopentylspiro[indoline-3,4′-piperidine]-1-yl)phenyl)urea] and `CC(C)(C)CN1CCC2(CC1)CN(c1ccccc1NC(=O)Nc1nc3ccc(F)cc3s1)c1c(O)ccc(C(F)(F)F)c12` [Example 3, 1-(6-Fluorobenzo[d]thiazol-2-yl)-3-(2-(7-hydroxy-1′-neopentyl-4-(trifluoromethyl)spiro[indoline-3,4′-piperidine]-1-yl)phenyl)urea] are within 1.5-fold of each other in Ki: 9 nM for the first, 8.9 nM for the second.

`CC(C)CN1CCC2(CC1)CN(c1ccccc1NC(=O)Nc1nc3ccc(F)cc3s1)c1c(O)ccc(Cl)c12` [Example 4, 1-(2-(4-Chloro-7-hydroxy-1′-isobutylspiro[indoline-3,4′-piperidine]-1-yl)phenyl)-3-(6-fluorobenzo[d]thiazol-2-yl)urea] showed a Ki of 9.9 nM.
